# Measured values as given in patent publication US10662156B2, “Guanidine derivative and medical use thereof” (Toray Industries, Inc., priority 2016, dated 2020).
# Counter-ions that a name gives are not always drawn.
# Molecular target: recombinant GST fusion MALT1 (human MALT1) (Homo sapiens (Human), UniProt Q9UDY8)
# Test: Evaluation of inhibition of protease activity of MALT1 (cleavage of fluorescent peptide substrate Ac-LRSR-AMC)
# Assay type: biochemical
# Conditions: substrate Ac-LRSR-AMC 20 μmol/L, 30° C. for 80 minutes
# Method: The guanidine derivative (I) or the pharmacologically acceptable salt thereof was evaluated for its inhibition of the protease activity of MALT1 in an in vitro experimental system in accordance with the method described in the literature (Cancer Cell, 2012, Vol. 22, p. 825-837). Specifically, the evaluation was conducted by measuring the degree of reduction in fluorescence value by the compound relative to elevation in fluorescence value resulting from the cleavage of a fluorescently labeled artificial peptide substrate by recombinant MALT1.
# A) Preparation of Recombinant GST Fusion MALT1:
# Full-length cDNA of human MALT1 gene (GenBank accession No: AB026118.1) amplified by PCR was inserted in flame to a SalI site located downstream of GST gene in a pGEX6P3 vector (GE Healthcare Japan Corp.) to prepare a vector (hereinafter, referred to as a pGEX6P3-MALT1 vector). Subsequently, E. coli for protein expression (BL21-RIL-codon plus-DE3, Agilent Technologies, Inc.) was transformed with the pGEX6P3-MALT1 vector and then analyzed by ampicillin resistance screening and colony PCR to obtain an E. coli strain expressing recombinant GST fusion MALT1. Protein expression was induced with isopropyl-(3-thiogalactopyranoside. After the expression induction, E. coli precipitates were recovered by centrifugation from the E. coli culture solution, and the E. coli precipitates were homogenized and then centrifuged to obtain a supernatant. The supernatant was purified using GSTrap FF column (GE Healthcare Japan Corp.) to obtain recombinant GST fusion MALT1.
# B) Evaluation of Inhibition of Protease Activity of MALT1:
# To 89 μL of an enzyme solution ([…] GST fusion MALT1, 50 mmol/L MES, 150 mmol/L NaCl, 10% sucrose, 0.1% CHAPS, 10 mmol/L dithiothreitol, and 1 mol/L tri-ammonium citrate) per specimen, 1 μL of a test compound (DMSO-diluted solution) of each concentration was added to prepare a mixed solution. The mixed solution was incubated at room temperature for 30 minutes, followed by the measurement of the fluorescence value of the mixed solution (fluorescence value of the first measurement) (Ex: 380 nm, Em: 460 nm; Envision (Perkin Elmer Inc.)). Next, 10 μL of 200 μmol/L substrate (Ac-LRSR-AMC, SM Biochemicals LLC) was added (final concentration: 20 μmol/L) to the mixed solution, and the mixture was reacted by incubation at 30° C. for 80 minutes, followed by the measurement of the fluorescence value of the reaction solution (fluorescence value of the second measurement) (Ex: 380 nm, Em: 460 nm; Envision (Perkin Elmer Inc.)). A “well nonsupplemented with the test compound (only DMSO was added), nonsupplemented with the enzyme and supplemented with the substrate”, and a “well nonsupplemented with the test compound (only DMSO was added), supplemented with the enzyme and supplemented with the substrate” were established.
# The fluorescence value of the first measurement was defined as “F1”, and the fluorescence value of the second measurement was defined as “F2”. F2−F1 of the “well nonsupplemented with the test compound (only DMSO was added), nonsupplemented with the enzyme and supplemented with the substrate” was defined as “Fback”, F2−F1 of the “well nonsupplemented with the test compound (only DMSO was added), supplemented with the enzyme and supplemented with the substrate” was defined as “Fpositive”, and F2−F1 of the “well supplemented with the test compound, supplemented with the enzyme and supplemented with the substrate” was defined as “Fsample”. The rate of inhibition (%) of the protease activity of MALT1 by the test compound was calculated according to the following expression. Rate of inhibition (%)=100×(1−(Fsample−Fback)/(Fpositive−Fback))
# recombinant GST fusion MALT1 (human MALT1), sequence (Q9UDY8 whole entry, the tested form may be a part): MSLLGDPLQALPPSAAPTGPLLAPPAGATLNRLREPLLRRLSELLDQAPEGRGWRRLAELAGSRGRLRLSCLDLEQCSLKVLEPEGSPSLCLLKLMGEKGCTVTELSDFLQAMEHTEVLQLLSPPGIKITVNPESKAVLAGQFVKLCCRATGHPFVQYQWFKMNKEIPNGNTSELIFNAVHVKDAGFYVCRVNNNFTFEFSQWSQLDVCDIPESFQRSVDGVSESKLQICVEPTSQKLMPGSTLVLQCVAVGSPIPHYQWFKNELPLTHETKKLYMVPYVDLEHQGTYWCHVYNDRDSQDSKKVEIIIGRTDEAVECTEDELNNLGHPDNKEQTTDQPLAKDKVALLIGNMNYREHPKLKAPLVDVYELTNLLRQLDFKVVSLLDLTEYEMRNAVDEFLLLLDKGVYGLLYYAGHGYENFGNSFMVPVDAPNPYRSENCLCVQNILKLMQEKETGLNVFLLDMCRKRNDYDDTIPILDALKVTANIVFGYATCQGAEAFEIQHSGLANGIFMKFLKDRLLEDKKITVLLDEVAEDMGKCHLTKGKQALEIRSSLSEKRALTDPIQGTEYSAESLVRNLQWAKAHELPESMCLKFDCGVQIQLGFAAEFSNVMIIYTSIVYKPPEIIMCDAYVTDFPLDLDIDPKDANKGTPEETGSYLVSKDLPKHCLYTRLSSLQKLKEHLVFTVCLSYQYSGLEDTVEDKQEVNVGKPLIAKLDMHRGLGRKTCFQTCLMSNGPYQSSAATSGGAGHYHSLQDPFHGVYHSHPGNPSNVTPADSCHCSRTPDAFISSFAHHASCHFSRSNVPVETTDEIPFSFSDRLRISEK
row,IC50 [nM],Compound
1,471,"N#Cc1ccc(C(=O)/N=C(\N)NCc2cnc(-c3ccc(Cl)cc3)c(-c3ccc(Cl)cc3)c2)cc1 [Compound of Example 62, N-(amino(((5,6-bis(4-chlorophenyl)pyridin-3-yl)methyl)amino)methylene)-4-cyanobenzamide]"
2,348,"N/C(=N\S(=O)(=O)c1ccccc1)NCc1cnc(-c2ccc(C(F)(F)F)cc2)c(-c2ccc(Cl)cc2)c1 [Compound of Example 11, N-(amino(((5-(4-chlorophenyl)-6-(4-(trifluoromethyl)phenyl)pyridin-3-yl)methyl)amino)methylene)benzenesulfonamide]"
3,754,"N/C(=N\C(=O)c1ccco1)NCc1cnc(-c2ccc(Cl)cc2)c(-c2ccc(Cl)cc2)c1 [Compound of Example 78, N-(amino(((5,6-bis(4-chlorophenyl)pyridin-3-yl)methyl)amino)methylene)furan-2-carboxamide]"
4,102,"N/C(=N\S(=O)(=O)c1ccco1)NCc1cnc(-c2ccc(Cl)cc2)c(-c2ccc(Cl)cc2)c1 [Compound of Example 31, N-(amino(((5,6-bis(4-chlorophenyl)pyridin-3-yl)methyl)amino)methylene)furan-2-sulfonamide]"
5,922,"N/C(=N\S(=O)(=O)c1ccccc1)NCc1cnc(-c2ccc(Cl)cc2O)c(-c2ccc(Cl)cc2)c1 [Compound of Example 97, N-(amino(((6-(4-chloro-2-hydroxyphenyl)-5-(4-chlorophenyl)pyridin-3-yl)methyl)amino)methylene)benzenesulfonamide]"
6,353,"N/C(=N\C(=O)Cc1ccccc1)NCc1cnc(-c2ccc(Cl)cc2)c(-c2ccc(Cl)cc2)c1 [Compound of Example 75, N-(amino(((5,6-bis(4-chlorophenyl)pyridin-3-yl)methyl)amino)methylene)-2-phenylacetamide]"
7,37,CN/C(=N\S(=O)(=O)c1ccccc1)NCc1cnc(-c2ccc(Cl)cc2)c(-c2ccc(Cl)cc2)c1 [Compound of Example 40]
8,106,"O=S(=O)(/N=C(\NO)NCc1cnc(-c2ccc(Cl)cc2)c(-c2ccc(Cl)cc2)c1)c1ccccc1 [Compound of Example 39, N-((((5,6-bis(4-chlorophenyl)pyridin-3-yl)methyl)amino)(hydroxyamino)methylene)benzenesulfonamide]"
9,1040,"N/C(=N\S(=O)(=O)c1ccccc1)NCc1cnc(-c2ccc(Cl)cc2)c(-c2ccc(C(F)(F)F)cc2)c1 [Compound of Example 21, N-(Amino(((6-(4-chlorophenyl)-5-(4-(trifluoromethyl)phenyl)pyridin-3-yl)methyl)amino)methylene)benzenesulfonamide]"
10,640,"COCC(=O)/N=C(\N)NCc1cnc(-c2ccc(Cl)cc2)c(-c2ccc(Cl)cc2)c1 [Compound of Example 63, N-(amino(((5,6-bis(4-chlorophenyl)pyridin-3-yl)methyl)amino)methylene)-2-methoxyacetamide]"
11,778,"COc1ccc(C(=O)/N=C(\N)NCc2cnc(-c3ccc(Cl)cc3)c(-c3ccc(Cl)cc3)c2)cc1 [Compound of Example 69, N-(amino(((5,6-bis(4-chlorophenyl)pyridin-3-yl)methyl)amino)methylene)-4-methoxybenzamide]"
12,1110,"N/C(=N\S(=O)(=O)c1ccccc1)NCc1cnc(-c2ccc(Cl)cc2)c(-c2ccc(F)cc2)c1 [Compound of Example 20, N-(amino(((6-(4-chlorophenyl)-5-(4-fluorophenyl)pyridin-3-yl)methyl)amino)methylene)benzenesulfonamide]"
13,338,"Cc1ccc(-c2ncc(CN/C(N)=N/S(=O)(=O)c3ccccc3)cc2-c2ccc(Cl)cc2)cc1F [Compound of Example 12, N-(amino(((5-(4-chlorophenyl)-6-(3-fluoro-4-methylphenyl)pyridin-3-yl)methyl)amino)methylene)benzenesulfonamide]"
14,606,"Cc1ccc(-c2cc(CN/C(N)=N/S(=O)(=O)c3ccccc3)cnc2-c2ccc(Cl)cc2)cc1 [Compound of Example 17, N-(amino(((6-(4-chlorophenyl)-5-(4-methylphenyl)pyridin-3-yl)methyl)amino)methylene)benzenesulfonamide]"
15,169,"N/C(=N\S(=O)(=O)c1ccc(Cl)s1)NCc1cnc(-c2ccc(Cl)cc2)c(-c2ccc(Cl)cc2)c1 [Compound of Example 54, N-(amino(((5,6-bis(4-chlorophenyl)pyridin-3-yl)methyl)amino)methylene)-5-chlorothiophene-2-sulfonamide]"
16,817,"N/C(=N\C(=O)c1ccccc1)NCc1cnc(-c2ccc(Cl)cc2)c(-c2ccc(Cl)cc2)c1 [Compound of Example 34, N-(amino(((5,6-bis(4-chlorophenyl)pyridin-3-yl)methyl)amino)methylene)benzamide]"
17,570,"N/C(=N\C(=O)c1ccsc1)NCc1cnc(-c2ccc(Cl)cc2)c(-c2ccc(Cl)cc2)c1 [Compound of Example 68, N-(amino(((5,6-bis(4-chlorophenyl)pyridin-3-yl)methyl)amino)methylene)thiophene-3-carboxamide]"
18,505,"COc1ccc(-c2ncc(CN/C(N)=N/S(=O)(=O)c3ccccc3)cc2-c2ccc(Cl)cc2)cc1 [Compound of Example 6, N-(amino(((5-(4-chlorophenyl)-6-(4-methoxyphenyl)pyridin-3-yl)methyl)amino)methylene)benzenesulfonamide]"
19,1320,"CN(C)S(=O)(=O)/N=C(\N)NCc1cnc(-c2ccc(Cl)cc2)c(-c2ccc(Cl)cc2)c1 [Compound of Example 60, ((2-amino-2-(((5,6-bis(4-chlorophenyl)pyridin-3-yl)methyl)amino)-1-azavinyl)sulfonyl)dimethylamine]"
20,114,"COc1cccc(S(=O)(=O)/N=C(\N)NCc2cnc(-c3ccc(Cl)cc3)c(-c3ccc(Cl)cc3)c2)c1 [Compound of Example 50, N-(amino(((5,6-bis(4-chlorophenyl)pyridin-3-yl)methyl)amino)methylene)-3-methoxybenzenesulfonamide]"
21,1610,"N/C(=N\S(=O)(=O)c1ccccc1)NCc1cnc(-c2ccc(Cl)cc2)c(-c2ccc(O)cc2)c1 [Compound of Example 94, N-(amino(((6-(4-chlorophenyl)-5-(4-hydroxyphenyl)pyridin-3-yl)methyl)amino)methylene)benzenesulfonamide Hydrochloride]"
22,1290,"N/C(=N\S(=O)(=O)c1ccccc1)NCc1cnc(-c2ccc(F)cc2)c(-c2ccc(Cl)cc2)c1 [Compound of Example 8, N-(amino(((5-(4-chlorophenyl)-6-(4-fluorophenyl)pyridin-3-yl)methyl)amino)methylene)benzenesulfonamide]"
23,1720,"CC(C)Oc1ccc(-c2cc(CN/C(N)=N/S(=O)(=O)c3ccccc3)cnc2-c2ccc(Cl)cc2)cc1 [Compound of Example 23, N-(amino(((6-(4-chlorophenyl)-5-(4-isopropoxyphenyl)pyridin-3-yl)methyl)amino)methylene)benzenesulfonamide]"
24,746,"N/C(=N\S(=O)(=O)Cc1ccccc1)NCc1cnc(-c2ccc(Cl)cc2)c(-c2ccc(Cl)cc2)c1 [Compound of Example 59, N-(amino(((5,6-bis(4-chlorophenyl)pyridin-3-yl)methyl)amino)methylene)-1-phenylmethanesulfonamide]"
25,744,"N/C(=N\C(=O)c1ccccn1)NCc1cnc(-c2ccc(Cl)cc2)c(-c2ccc(Cl)cc2)c1 [Compound of Example 82, N-(amino(((5,6-bis(4-chlorophenyl)pyridin-3-yl)methyl)amino)methylene)picolinamide]"
